Measurements from the NIST ThermoML archive (doi:10.1016/j.fluid.2015.10.035).
± gives the expanded uncertainty stated by the source.

What was measured:
[1] = Boiling temperature at pressure P; conditions: 101.3 kPa; Liquid; Closed cell (Static) method
[2] = refractive index (Na D-line) (dimensionless); conditions: 293.15 K; 101.33 kPa; Liquid; Standard Abbe refractometry
[3] = 293.15 K; 101.33 kPa; Liquid; Vibrating tube method

SMILES | Boiling temperature at pressure P [1] | refractive index [2] | mass density [3]
CC(C)O [propan-2-ol] | 82.34 ± 0.1 °C | 1.3773 ± 0.0004 | 786 ± 0.4 kg/m3
CC#N [acetonitrile] | 81.44 ± 0.1 °C | 1.3439 ± 0.0004 | 782.1 ± 0.4 kg/m3
